According to PubChem BioAssay AID720513 (Broad Institute, 2013):
Results filed as inconclusive are left out.

Test system: U2OS PGC1a acetylation AlphaLISA, overnight
Assay: activators raising PGC1a acetylation in cells, dose response, cell-based, cherry-picked samples, set 6 (AID 720513);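 note: cells made to overexpress flag tagged PGC1a plus GCN5 acetyltransferase by viral infection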

SMILES: O=C(NCc1cccnc1)c1ccc(NC(=O)c2cccc([N+](=O)[O-])c2)cc1
- AC40: < 0.16 µM

SMILES: Nc1ccc(N2CCCCC2)cc1N1CCCCC1
- AC40: 5.98 µM

SMILES: CC(Sc1nc2ccccc2s1)C(=O)NC1CCCc2ccccc21 (stereo unspecified)
- AC40: 12.4 µM

SMILES: CC1CC1C(=O)OCC(=O)NCc1ccc(Cl)cc1 (stereo unspecified)
- AC40: 18.2 µM

SMILES: CC(=O)c1ccc(N2CCN(c3ccc(S(=O)(=O)NCCN(C)C)cc3[N+](=O)[O-])CC2)cc1
- AC40: 6.58 µM

SMILES: Oc1ccc(Nc2nnc(-c3ccc(O)cc3)c3ccccc23)cc1
- AC40: 1.57 µM

SMILES: Cc1nc(N2CCN(S(=O)(=O)c3ccc(F)cc3)CC2)c2c(-c3cccs3)csc2n1
- AC40: 3.27 µM

SMILES: COc1ccc(OC(=O)N(C)C[C@H]2OCc3ccccc3-c3c(n(C)c4ccccc34)C(=O)N([C@H](C)CO)C[C@H]2C)cc1
- AC40: 6.06 µM

SMILES: O=C(NCc1ccco1)c1scc2c1OCCO2
- AC40: 12.3 µM

SMILES: COCCCn1c(N)c(C(=O)Nc2ccccc2)c2nc3ccccc3nc21
- AC40: 1.18 µM

SMILES: CC(C)(C)c1ccc(NC(=O)N2CCCN(c3ccc([N+](=O)[O-])cn3)CC2)cc1
- AC40: 0.25 µM

SMILES: O=C(NCCCN1CCOCC1)c1ccccc1N1C(=O)[C@@H]2Cc3c([nH]c4ccccc34)C(c3ccccc3)N2C1=O (stereo partly specified)
- AC40: 6.79 µM

SMILES: C[C@H]1CN([C@@H](C)CO)C(=O)c2cccc(NC(=O)Nc3cccc4ccccc34)c2O[C@H]1CN(C)Cc1ccc(C(=O)Nc2ccccc2N)cc1
- AC40: 7.53 µM

SMILES: COc1ccc([N+](=O)[O-])cc1NCc1ccccc1
- AC40: 2.95 µM

SMILES: CCN1CCN(c2ncc(C(=O)Nc3cc(Cl)ccc3OC)c3ccccc23)CC1
- AC40: 5.32 µM

SMILES: CSCCC(c1nnnn1-c1c(C)cccc1C)N1CCC(n2c(=O)[nH]c3ccccc32)CC1 (stereo unspecified)
- AC40: 1.32 µM

SMILES: CC1CC(NS(=O)(=O)c2cccs2)CC(C)(C)C1 (stereo unspecified)
- AC40: 0.437 µM

SMILES: O=C(Cc1ccccc1)Nc1ccc(NC(=O)c2cccs2)cc1
- AC40: 1.23 µM

SMILES: Cc1ccc(Cl)cc1NC(=O)Cn1nc(-c2cccs2)ccc1=O
- AC40: 4.08 µM

SMILES: Cc1cccc(-c2ccc3[nH]c4c(c3c2)CCN2C[C@@H]([C@H](C)O)[C@@H](N(C)C(=O)NC3CCCCC3)C[C@@H]42)c1
- AC40: 13.7 µM

SMILES: CCOC(=O)C1=C[C@@H](C(C)(C)C)N(S(=O)(=O)c2ccc(C)cc2)[C@H]1c1cccc2ccccc12
- AC40: 0.543 µM
